As a reminder, the ΔTm is the change in melting temperature against a reference sample.

Among the data in ChEMBL document CHEMBL1145498, “A systematic interaction map of validated kinase inhibitors with Ser/Thr kinases” (Proc Natl Acad Sci U S A, 2007) are ΔTm values, retold here.

Assay [1] concerns the target T1, Calcium/calmodulin-dependent protein kinase type IV (Homo sapiens) (UniProt Q16566).
T1 sequence (whole entry): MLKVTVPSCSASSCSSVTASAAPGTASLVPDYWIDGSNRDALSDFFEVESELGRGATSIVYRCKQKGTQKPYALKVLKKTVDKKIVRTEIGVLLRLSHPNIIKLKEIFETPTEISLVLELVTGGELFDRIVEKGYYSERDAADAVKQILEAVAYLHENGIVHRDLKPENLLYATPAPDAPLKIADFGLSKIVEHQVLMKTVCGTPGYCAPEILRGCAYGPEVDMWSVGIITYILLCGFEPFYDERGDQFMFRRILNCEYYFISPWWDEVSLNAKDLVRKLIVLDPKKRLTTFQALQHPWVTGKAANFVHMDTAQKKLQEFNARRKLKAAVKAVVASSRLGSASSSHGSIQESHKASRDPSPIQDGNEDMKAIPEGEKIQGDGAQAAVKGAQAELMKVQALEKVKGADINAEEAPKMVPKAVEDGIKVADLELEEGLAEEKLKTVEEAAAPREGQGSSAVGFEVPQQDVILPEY

Assay [2] concerns the target Cyclin-dependent kinase-like 1 (Homo sapiens) (UniProt Q00532).
Assay [3] addresses 5'-AMP-activated protein kinase catalytic subunit alpha-2 (Homo sapiens) (UniProt P54646).
Assay [4] addresses Serine/threonine-protein kinase PAK 6 (Homo sapiens) (UniProt Q9NQU5).
In assay [5] the target is Ribosomal protein S6 kinase alpha-3 (Homo sapiens) (UniProt P51812).
Assay [6] deals with T2, Serine/threonine-protein kinase VRK1 (Homo sapiens) (UniProt Q99986).
T2 sequence (whole entry): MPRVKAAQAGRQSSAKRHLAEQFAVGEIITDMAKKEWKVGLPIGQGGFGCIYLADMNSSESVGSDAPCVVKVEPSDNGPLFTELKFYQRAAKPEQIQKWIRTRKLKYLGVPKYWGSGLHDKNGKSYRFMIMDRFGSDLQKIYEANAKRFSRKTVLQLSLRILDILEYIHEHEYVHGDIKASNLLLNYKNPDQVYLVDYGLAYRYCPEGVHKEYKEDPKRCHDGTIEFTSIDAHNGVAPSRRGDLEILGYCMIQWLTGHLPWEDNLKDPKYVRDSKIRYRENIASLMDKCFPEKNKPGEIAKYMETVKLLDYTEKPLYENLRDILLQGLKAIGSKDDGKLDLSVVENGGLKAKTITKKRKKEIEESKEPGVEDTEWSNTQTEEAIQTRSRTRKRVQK

For assay [7], the target named is Serine/threonine-protein kinase 38 (Homo sapiens) (UniProt Q15208).
Assay [8] concerns the target T3, Serine/threonine-protein kinase VRK3 (Homo sapiens) (UniProt Q8IV63).
T3 sequence (whole entry): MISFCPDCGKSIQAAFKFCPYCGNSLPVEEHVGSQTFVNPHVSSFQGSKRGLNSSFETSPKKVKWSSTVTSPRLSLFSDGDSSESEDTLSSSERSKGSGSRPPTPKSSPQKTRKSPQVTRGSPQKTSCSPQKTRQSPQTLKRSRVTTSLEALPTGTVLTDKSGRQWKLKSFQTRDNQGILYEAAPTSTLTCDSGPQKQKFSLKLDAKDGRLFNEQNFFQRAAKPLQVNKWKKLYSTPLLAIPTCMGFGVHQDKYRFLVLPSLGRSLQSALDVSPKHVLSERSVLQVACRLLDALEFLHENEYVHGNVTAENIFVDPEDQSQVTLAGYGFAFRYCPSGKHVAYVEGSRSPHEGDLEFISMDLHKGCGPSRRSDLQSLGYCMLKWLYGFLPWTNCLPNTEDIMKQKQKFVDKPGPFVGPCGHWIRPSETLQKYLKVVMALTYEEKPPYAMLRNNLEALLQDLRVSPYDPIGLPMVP

The target in assay [9] is Calcium/calmodulin-dependent protein kinase kinase 2 (Homo sapiens, UniProt Q96RR4).
Assay [10] deals with Serine/threonine-protein kinase 25 (Homo sapiens) (UniProt O00506).
Assay [11] concerns the target Calcium/calmodulin-dependent protein kinase type II subunit gamma (Homo sapiens) (UniProt Q13555).

Sequence of Serine/threonine-protein kinase 38 (Homo sapiens) (Q15208 2-465 limits assumed): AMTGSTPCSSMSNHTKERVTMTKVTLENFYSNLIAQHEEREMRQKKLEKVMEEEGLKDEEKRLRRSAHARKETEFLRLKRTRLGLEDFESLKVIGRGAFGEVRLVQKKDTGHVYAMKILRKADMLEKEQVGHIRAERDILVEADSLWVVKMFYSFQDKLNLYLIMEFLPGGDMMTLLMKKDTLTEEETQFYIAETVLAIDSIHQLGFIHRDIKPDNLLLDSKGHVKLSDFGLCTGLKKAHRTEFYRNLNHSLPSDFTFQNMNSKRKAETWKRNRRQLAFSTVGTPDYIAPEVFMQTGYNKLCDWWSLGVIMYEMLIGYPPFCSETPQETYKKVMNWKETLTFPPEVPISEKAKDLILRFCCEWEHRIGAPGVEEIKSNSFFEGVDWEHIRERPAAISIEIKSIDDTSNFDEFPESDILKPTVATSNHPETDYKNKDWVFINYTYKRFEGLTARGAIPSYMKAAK
Sequence of Calcium/calmodulin-dependent protein kinase type II subunit gamma (Homo sapiens) (Q13555 whole entry): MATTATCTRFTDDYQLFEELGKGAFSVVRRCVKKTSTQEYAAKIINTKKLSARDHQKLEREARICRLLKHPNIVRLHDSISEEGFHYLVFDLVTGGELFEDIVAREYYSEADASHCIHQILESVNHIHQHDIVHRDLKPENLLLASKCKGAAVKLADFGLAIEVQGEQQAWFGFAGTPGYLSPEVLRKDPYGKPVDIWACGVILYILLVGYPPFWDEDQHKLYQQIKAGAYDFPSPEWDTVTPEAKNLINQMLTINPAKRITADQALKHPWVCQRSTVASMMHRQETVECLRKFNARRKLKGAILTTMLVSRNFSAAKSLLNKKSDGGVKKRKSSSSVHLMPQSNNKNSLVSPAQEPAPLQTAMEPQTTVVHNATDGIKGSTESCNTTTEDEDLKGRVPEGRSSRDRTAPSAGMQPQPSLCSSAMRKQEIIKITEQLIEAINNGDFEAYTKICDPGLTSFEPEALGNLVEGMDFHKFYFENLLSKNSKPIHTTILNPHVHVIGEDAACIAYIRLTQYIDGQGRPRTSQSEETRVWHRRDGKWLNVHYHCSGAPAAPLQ
Sequence of 5'-AMP-activated protein kinase catalytic subunit alpha-2 (Homo sapiens) (P54646 whole entry, looked up): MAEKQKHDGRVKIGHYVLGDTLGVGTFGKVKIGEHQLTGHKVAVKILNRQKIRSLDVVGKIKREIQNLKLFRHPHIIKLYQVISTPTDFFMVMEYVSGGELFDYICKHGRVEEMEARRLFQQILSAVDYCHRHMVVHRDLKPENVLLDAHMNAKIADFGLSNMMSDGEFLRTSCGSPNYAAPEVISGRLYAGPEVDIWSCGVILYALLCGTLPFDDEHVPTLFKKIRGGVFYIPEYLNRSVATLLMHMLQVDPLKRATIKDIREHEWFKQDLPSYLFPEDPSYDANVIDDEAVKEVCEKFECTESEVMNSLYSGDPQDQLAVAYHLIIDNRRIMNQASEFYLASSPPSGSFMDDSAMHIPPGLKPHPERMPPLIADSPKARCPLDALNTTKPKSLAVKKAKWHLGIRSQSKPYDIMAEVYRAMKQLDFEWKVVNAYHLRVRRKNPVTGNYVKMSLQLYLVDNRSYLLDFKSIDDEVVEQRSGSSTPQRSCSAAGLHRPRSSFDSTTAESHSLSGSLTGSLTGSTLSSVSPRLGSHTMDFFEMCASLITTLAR
Sequence of Calcium/calmodulin-dependent protein kinase kinase 2 (Q96RR4 2-588 limits assumed): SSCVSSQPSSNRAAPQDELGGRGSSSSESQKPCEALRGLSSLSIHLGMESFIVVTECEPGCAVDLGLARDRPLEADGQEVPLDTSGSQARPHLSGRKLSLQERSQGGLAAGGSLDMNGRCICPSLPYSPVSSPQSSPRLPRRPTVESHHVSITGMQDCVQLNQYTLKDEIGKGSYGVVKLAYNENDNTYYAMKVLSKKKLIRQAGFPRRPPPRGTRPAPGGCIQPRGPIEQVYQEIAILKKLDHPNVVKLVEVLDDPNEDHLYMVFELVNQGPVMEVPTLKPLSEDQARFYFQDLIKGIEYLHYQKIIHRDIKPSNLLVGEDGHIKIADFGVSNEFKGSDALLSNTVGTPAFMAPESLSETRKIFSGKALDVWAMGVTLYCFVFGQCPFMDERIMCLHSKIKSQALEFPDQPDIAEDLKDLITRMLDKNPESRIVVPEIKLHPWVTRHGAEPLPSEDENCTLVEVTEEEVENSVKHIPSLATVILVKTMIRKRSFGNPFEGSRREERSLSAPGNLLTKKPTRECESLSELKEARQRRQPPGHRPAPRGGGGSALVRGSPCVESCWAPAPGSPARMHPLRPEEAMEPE
Sequence of Serine/threonine-protein kinase PAK 6 (Homo sapiens) (Q9NQU5 whole entry, looked up): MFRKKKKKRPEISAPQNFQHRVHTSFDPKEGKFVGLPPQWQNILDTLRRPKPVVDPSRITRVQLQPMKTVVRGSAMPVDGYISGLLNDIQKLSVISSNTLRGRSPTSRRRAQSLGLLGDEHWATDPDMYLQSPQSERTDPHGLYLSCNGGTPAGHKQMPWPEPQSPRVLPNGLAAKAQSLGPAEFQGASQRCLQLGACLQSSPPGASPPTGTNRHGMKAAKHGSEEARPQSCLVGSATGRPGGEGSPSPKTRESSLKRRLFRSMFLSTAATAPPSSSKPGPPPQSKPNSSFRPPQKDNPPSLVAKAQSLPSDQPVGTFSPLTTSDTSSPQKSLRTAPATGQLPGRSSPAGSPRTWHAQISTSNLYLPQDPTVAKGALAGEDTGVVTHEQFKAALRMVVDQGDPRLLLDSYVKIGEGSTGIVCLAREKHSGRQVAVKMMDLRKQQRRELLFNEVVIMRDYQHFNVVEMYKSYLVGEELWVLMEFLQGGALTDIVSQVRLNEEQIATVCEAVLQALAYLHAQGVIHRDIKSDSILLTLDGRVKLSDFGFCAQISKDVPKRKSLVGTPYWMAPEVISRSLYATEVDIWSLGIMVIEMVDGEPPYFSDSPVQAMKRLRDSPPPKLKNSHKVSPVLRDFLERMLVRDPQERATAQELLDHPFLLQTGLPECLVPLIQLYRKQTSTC
Sequence of Cyclin-dependent kinase-like 1 (Homo sapiens) (Q00532 whole entry): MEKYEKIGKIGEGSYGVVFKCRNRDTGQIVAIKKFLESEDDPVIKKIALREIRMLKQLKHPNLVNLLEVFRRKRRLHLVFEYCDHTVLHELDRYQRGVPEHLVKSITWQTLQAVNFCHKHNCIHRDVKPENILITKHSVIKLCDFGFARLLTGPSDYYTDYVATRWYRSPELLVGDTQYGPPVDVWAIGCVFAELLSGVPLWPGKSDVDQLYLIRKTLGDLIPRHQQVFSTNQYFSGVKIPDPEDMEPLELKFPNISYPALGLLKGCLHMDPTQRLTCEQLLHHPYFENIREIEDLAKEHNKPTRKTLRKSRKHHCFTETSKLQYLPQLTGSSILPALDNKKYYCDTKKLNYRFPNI
Sequence of Ribosomal protein S6 kinase alpha-3 (Homo sapiens) (P51812 whole entry): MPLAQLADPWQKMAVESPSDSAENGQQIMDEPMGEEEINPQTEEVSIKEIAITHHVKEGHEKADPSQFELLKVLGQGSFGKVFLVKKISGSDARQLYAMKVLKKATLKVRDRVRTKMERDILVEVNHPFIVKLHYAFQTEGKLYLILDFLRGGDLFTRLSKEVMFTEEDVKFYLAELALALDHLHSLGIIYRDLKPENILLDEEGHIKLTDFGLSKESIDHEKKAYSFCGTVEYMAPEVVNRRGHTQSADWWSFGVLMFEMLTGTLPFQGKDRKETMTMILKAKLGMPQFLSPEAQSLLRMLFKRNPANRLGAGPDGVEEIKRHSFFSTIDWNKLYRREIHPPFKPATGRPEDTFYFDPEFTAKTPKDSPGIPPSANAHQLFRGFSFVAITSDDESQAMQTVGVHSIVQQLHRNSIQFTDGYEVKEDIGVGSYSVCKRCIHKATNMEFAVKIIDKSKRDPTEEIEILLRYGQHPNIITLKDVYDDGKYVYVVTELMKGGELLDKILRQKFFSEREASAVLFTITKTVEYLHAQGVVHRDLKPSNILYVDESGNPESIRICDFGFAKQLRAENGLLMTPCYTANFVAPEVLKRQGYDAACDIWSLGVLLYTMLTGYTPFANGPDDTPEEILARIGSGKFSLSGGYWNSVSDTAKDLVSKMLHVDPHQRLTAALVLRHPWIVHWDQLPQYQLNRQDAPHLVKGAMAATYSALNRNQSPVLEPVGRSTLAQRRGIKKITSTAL
Sequence of Serine/threonine-protein kinase 25 (Homo sapiens) (O00506 whole entry, looked up): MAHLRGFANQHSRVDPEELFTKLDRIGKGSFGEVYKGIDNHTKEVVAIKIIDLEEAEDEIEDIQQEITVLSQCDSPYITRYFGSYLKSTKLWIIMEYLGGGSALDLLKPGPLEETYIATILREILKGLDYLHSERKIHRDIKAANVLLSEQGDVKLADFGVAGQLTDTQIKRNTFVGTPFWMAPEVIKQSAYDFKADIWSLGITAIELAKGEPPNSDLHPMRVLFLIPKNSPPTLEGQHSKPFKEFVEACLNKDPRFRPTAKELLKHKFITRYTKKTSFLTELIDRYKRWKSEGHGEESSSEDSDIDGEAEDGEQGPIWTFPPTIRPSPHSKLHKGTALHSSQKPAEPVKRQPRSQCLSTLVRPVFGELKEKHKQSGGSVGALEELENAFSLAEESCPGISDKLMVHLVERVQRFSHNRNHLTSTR

Turning to `COC1=C2C[C@@H](C)C[C@H](OC)[C@H](O)[C@@H](C)/C=C(\C)[C@H](OC(N)=O)[C@@H](OC)/C=C\C=C(/C)C(=O)NC(=CC1=O)C2=O`, the ΔTm in assay [1] is 0 °C; in assay [2] it was -0.5 °C; in [3], 0.4 °C; in assay [4] it was 0.3 °C; in assay [5], 0.2 °C; in [6], -0.1 °C. For the same compound, the ΔTm is 0.2 °C in [7]; -0.7 °C in [8]; -0.6 °C in assay [9]; -0.6 °C in assay [10]; 0.1 °C in assay [11].
As for `CC(C)N(CCO)c1nc(Nc2cccc(Cl)c2)c2ncn(C(C)C)c2n1`, the ΔTm in assay [1] is 2.2 °C; in [2], 0.3 °C; in assay [3], 0.2 °C; in assay [4], 5.3 °C; in assay [5], 6 °C; in assay [6], 0.5 °C. Further, the ΔTm in assay [7] was 3.3 °C; in assay [8], 0.4 °C; in assay [9], 2.8 °C; in [10] it was 3.4 °C; in assay [11] it was 0.6 °C.
On to `O=c1cc(N2CCOCC2)oc2c(-c3ccccc3)cccc12`, for which the ΔTm was 1 °C in [1]; -0.5 °C in assay [2]; -0.9 °C in assay [3]; -0.6 °C in assay [4]; 0 °C in assay [5]; 0.8 °C in [6]. In addition, the ΔTm in [7] worked out at 0.6 °C; in assay [8], 0.6 °C; in assay [9], 0.4 °C; in assay [10] it was 0 °C; in assay [11], 0.3 °C.
Regarding `N#C/C(=C\c1ccc(O)c(O)c1)C(=O)Nc1ccccc1`, the ΔTm is 0.6 °C in assay [1]; -0.1 °C in assay [2]; -0.3 °C in assay [3]; 0 °C in assay [4]; 0.8 °C in assay [5]; 0.2 °C in assay [6]. The ΔTm in [7] was 0 °C; in assay [8], 0 °C; in assay [9], 0.5 °C; in [10], 0.5 °C; in assay [11], -0.2 °C.
As for `CN[C@@H]1CC2O[C@@](C)([C@@H]1OC)n1c3ccccc3c3c4c(c5c6ccccc6n2c5c31)C(=O)NC4`, the ΔTm in [2] was found to be 6.6 °C; in assay [3], 16.7 °C; in assay [4], 16.8 °C; in assay [5], 12.3 °C; in [6], 2.2 °C; in [7] it was 5.7 °C. Further, the ΔTm came out at 0.3 °C in assay [8], 18.6 °C in [9], 9.6 °C in assay [10] and 14.6 °C in assay [11].
Regarding `COc1ccc(CNC(=O)Nc2ncc([N+](=O)[O-])s2)cc1`, the ΔTm in assay [1] is -0.1 °C; in [2], 0.3 °C; in [3] it was -0.1 °C; in assay [4] it was 0.5 °C; in assay [6], -0.5 °C; in assay [7], 0.1 °C. Further, the ΔTm in assay [8] was -0.5 °C; in [9] it was 0 °C; in [10], 0.1 °C; in [11] it was -0.2 °C.
For the compound `N#C/C(=C1/Nc2ccccc2S1)c1ccnc(NCCc2cccnc2)n1`, the ΔTm in assay [1] was found to be 1.4 °C; in assay [2], 3.1 °C; in assay [3], 6 °C; in assay [4], 1.6 °C; in assay [6], 1.3 °C; in assay [7], 2.2 °C. The ΔTm in assay [8] amounted to 0.9 °C; in assay [9] it was 3.7 °C; in assay [10], 0.8 °C; in assay [11] it was 1 °C.
Regarding `CC(C)(C)c1nc2c3ccc(F)cc3c3c(=O)[nH]ccc3c2[nH]1`, the ΔTm amounted to 4.8 °C in assay [1]; 0.3 °C in [2]; 6.4 °C in assay [3]; 2.3 °C in assay [4]; 1.1 °C in assay [6]; 3.7 °C in assay [7]. The ΔTm came to 0.2 °C in assay [8], 1.3 °C in assay [9], 2.9 °C in [10] and 4.5 °C in assay [11].
